Test results taken from patent US20240327389A1, “LACTONE AND LACTAM CONTAINING COMPOUNDS USEFUL AS IMMUNOMODULATORS” (BRISTOL-MYERS SQUIBB COMPANY, priority 2021, published 2024).
pIC50: −log10 of the molar value.

Target: PD-1/PD-L1 interaction (PD-1-Ig / PD-L1-His) (Homo sapiens (Human), UniProt Q9NZQ7)
Assay: PD-1/PD-L1 Homogenous Time-Resolved Fluorescence (HTRF) binding assay
Details: PD-L1-His 10 nM final, PD-1-Ig 20 nM final
Source text: The ability of the compounds of the invention to bind to PD-L1 was investigated using a PD-1/PD-L1 Homogenous Time-Resolved Fluorescence (HTRF) binding assay.
The interaction of PD-1 and PD-L1 can be assessed using soluble, purified preparations of the extracellular domains of the two proteins. The PD-1 and PD-L1 protein extracellular domains were expressed as fusion proteins with detection tags, for PD-1, the tag was the Fc portion of Immunoglobulin (PD-1-Ig) and for PD-L1 it was the 6 histidine motif (PD-L1-His). All binding studies were performed in an HTRF assay buffer consisting of dPBS supplemented with 0.1% […] bovine serum albumin and 0.05% (v/v) Tween-20. For the h/PD-L1-His binding assay, inhibitors were pre-incubated with PD-L1-His (10 nM final) for 15 m in 4 μl of assay buffer, followed by addition of PD-1-Ig (20 nM final) in 1 μl of assay buffer and further incubation for 15 m. HTRF detection was achieved using europium crypate-labeled anti-Ig (1 nM final) and allophycocyanin (APC) labeled anti-His (20 nM final). Antibodies were diluted in HTRF detection buffer and 5 μl was dispensed on top of the binding reaction. The reaction mixture was allowed to equilibrate for 30 minutes and the resulting signal (665 nm/620 nm ratio) was obtained using an EnVision fluorometer. Additional binding assays were established between the human proteins PD-1-Ig/PD-L2-His (20 & 5 nM, respectively) and CD80-His/PD-L1-Ig (100 & 10 nM, respectively).
Recombinant Proteins: Human PD-1 (25-167) with a C-terminal human Fc domain of immunoglobulin G (Ig) epitope tag [hPD-1 (25-167)-3S-IG] and human PD-L1 (18-239) with a C-terminal His epitope tag [hPD-L1(18-239)-TVMV-His] were expressed in HEK293T cells and purified sequentially by ProteinA affinity chromatography and size exclusion chromatography. Human PD-L2-His and CD80-His was obtained through commercial sources.
Homogenous Time-Resolved Fluorescence (HTRF) Assays of Binding of Soluble PD-1 to Soluble PD-L1. Soluble PD-1 and soluble PD-L1 refers to proteins with carboxyl-end truncations that remove the transmembrane-spanning regions and are fused to heterologous sequences, specifically the Fc portion of the human immunoglobuling G sequence (Ig) or the hexahistidine epitope tag (His). All binding studies were performed in an HTRF assay buffer consisting of dPBS supplemented with 0.1% (w/v) bovine serum albumin and 0.05% (v/v) Tween-20. For the PD-1-Ig/PD-L1-His binding assay, inhibitors were pre-incubated with PD-L1-His (10 nM final) for 15 m in 4 μl of assay buffer, followed by addition of PD-1-Ig (20 nM final) in 1 μl of assay buffer and further incubation for 15 m. PD-L1 fusion proteins from either human, cynomologous macaques, mouse, or other species were used. HTRF detection was achieved using europium crypate-labeled anti-Ig monoclonal antibody (1 nM final) and allophycocyanin (APC) labeled anti-His monoclonal antibody (20 nM final). Antibodies were diluted in HTRF detection buffer and 5 μl was dispensed on top of binding reaction. The reaction was allowed to equilibrate for 30 minutes and signal (665 nm/620 nm ratio) was obtained using an EnVision fluorometer. Additional binding assays were established between PD-1-Ig/PD-L2-His (20 and 5 nM, respectively), CD80-His/PD-L1-Ig (100 and 10 nM, respectively) and CD80-His/CTLA4-Ig (10 and 5 nM, respectively).
Recombinant Proteins. Carboxyl-truncated human PD-1 (amino acids 25-167) with a C-terminal human Ig epitope tag [hPD-1 (25-167)-3S-IG] and human PD-L1 (amino acids 18-239) with a C-terminal His epitope tag [hPD-L1(19-239)-tobacco vein mottling virus protease cleavage site (TVMV)-His] were expressed in HEK293T cells and purified sequentially by recombinant Protein A affinity chromatography and size exclusion chromatography. Human PD-L2-His (Sino Biologicals), CD80-His (Sino Biologicals), CTLA4-Ig (RnD Systems) were all obtained through commercial sources.

Chain of PD-1/PD-L1 interaction (PD-1-Ig / PD-L1-His) (Q9NZQ7 18-239): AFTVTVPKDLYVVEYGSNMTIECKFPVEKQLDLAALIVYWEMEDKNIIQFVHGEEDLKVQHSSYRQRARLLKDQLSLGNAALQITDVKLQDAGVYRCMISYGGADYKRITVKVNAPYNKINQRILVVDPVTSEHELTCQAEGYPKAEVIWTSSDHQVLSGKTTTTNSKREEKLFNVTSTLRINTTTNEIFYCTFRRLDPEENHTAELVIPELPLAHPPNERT

Row | SMILES | pIC50
1 | Cc1c(COc2cc(OCc3cncc(C#N)c3)c(CN[C@@H]3COC(=O)C3)cc2Cl)cccc1-c1cccc(OCC2CCCN(C)C2)c1Cl (some centres unmarked) [Compound 1004] | 8.51
2 | Cc1c(COc2cc(OCc3cncc(C#N)c3)c(CNC3CCCNC3=O)cc2Cl)cccc1-c1cccc(OCC2CCCN(C)C2)c1Cl (centres unmarked) [Compound 1014] | 8.49
3 | COc1cc(OCc2cccc(-c3cccc(OCC4CCCN(C)C4)c3Cl)c2C)c(Cl)cc1CN[C@H]1CCOC1=O (some centres unmarked) [Compound 1040] | 8.17
4 | Cc1c(COc2cc(OCc3cncc(C#N)c3)c(CN(C)C3CC(C)OC3=O)cc2Cl)cccc1-c1cccc(COc2cc(OCc3cncc(C#N)c3)c(CN(C)C3CC(C)OC3=O)cc2Cl)c1C (centres unmarked) [Compound 1053] | 5.83
5 | Cc1c(COc2cc(OCc3cncc(C#N)c3)c(CNC3CC(C)(C)OC3=O)cc2Cl)cccc1-c1cccc(OCC2CCCN(C)C2)c1Cl (centres unmarked) [Compound 1007] | 8.46
6 | Cc1c(COc2cc(OCc3cncc(C#N)c3)c(CNC3CC(C)OC3=O)cc2Cl)cccc1-c1cccc(COc2cc(OCc3cncc(C#N)c3)c(CNC3CC(C)OC3=O)cc2Cl)c1C (centres unmarked) [Compound 1024] | 7.67
7 | Cc1c(COc2cc(OCc3cncc(C#N)c3)c(CO)cc2Cl)cccc1-c1cccc(COc2cc(OCc3cncc(C#N)c3)c(CNC3(C)CCOC3=O)cc2Cl)c1C (centres unmarked) [Compound 1017] | 6.95
8 | N#Cc1cncc(COc2cc(OCc3cccc(-c4cccc(COc5cc(OCc6cncc(C#N)c6)c(CN[C@H]6CCOC6=O)cc5Cl)c4Cl)c3Cl)c(Cl)cc2CN[C@H]2CCOC2=O)c1 [Compound 1026] | 7.98
9 | Cc1c(COc2cc(OCc3cncc(C#N)c3)c(CNC3(C)CC(C)(C)OC3=O)cc2Cl)cccc1-c1cccc(OCC2CCCN(C)C2)c1Cl (centres unmarked) [Compound 1009] | 8.52
10 | COc1cc(OCc2cccc(-c3cccc(OCC4CCCN(C)C4)c3Cl)c2C)c(Cl)cc1CNC1(C)CCOC1=O (centres unmarked) [Compound 1036] | 8.14
11 | CC(=O)N(Cc1cc(Cl)c(COc2cccc(-c3cccc(COc4cc(OCc5cncc(C#N)c5)c(CN(C(C)=O)[C@@H]5COC(=O)C5)cc4Cl)c3C)c2C)cc1OCc1cncc(C#N)c1)[C@@H]1COC(=O)C1 [Compound 1050] | 7.33
12 | COc1cc(OCc2cccc(-c3cccc(OCC4CCCN(C)C4)c3Cl)c2C)c(Cl)cc1CNC1CCNC1=O (centres unmarked) [Compound 1038] | 8.32
13 | Cc1c(COc2cc(OCc3cncc(C#N)c3)c(CN[C@@H]3CCOC3=O)cc2Cl)cccc1-c1cccc(OCC2CCCN(C)C2)c1Cl (some centres unmarked) [Compound 1002] | 8.46
14 | Cc1c(COc2cc(OCc3cncc(C#N)c3)c(CN[C@H]3CCOC3=O)cc2Cl)cccc1-c1cccc(OCC2CCCN(C)C2)c1Cl (some centres unmarked) [Compound 1001] | 8.57
15 | COc1cc(OCc2cccc(-c3cccc(OCC4CCCN(C)C4)c3Cl)c2C)c(Cl)cc1CN[C@@H]1CCOC1=O (some centres unmarked) [Compound 1041] | 8.04
16 | Cc1c(COc2cc(OCc3cncc(C#N)c3)c(CN[C@H]3COC(=O)C3)cc2Cl)cccc1-c1cccc(OCC2CCCN(C)C2)c1Cl (some centres unmarked) [Compound 1003] | 8.70
17 | COc1cc(OCc2cccc(-c3cccc(OCC4CCCN(C)C4)c3Cl)c2C)c(Cl)cc1CN[C@H]1CCNC1=O (some centres unmarked) [Compound 1044] | 8.25
18 | Cc1c(COc2cc(OCc3cncc(C#N)c3)c(CNC3(C)CCOC3=O)cc2Cl)cccc1-c1cccc(COc2cc(OCc3cncc(C#N)c3)c(CNC3(C)CCOC3=O)cc2Cl)c1C (centres unmarked) [Compound 1016] | 6.96
19 | Cc1c(COc2cc(OCc3cncc(C#N)c3)c(CNC3C(=O)OCC3(C)C)cc2Cl)cccc1-c1cccc(COc2cc(OCc3cncc(C#N)c3)c(CNC3C(=O)OCC3(C)C)cc2Cl)c1C (centres unmarked) [Compound 1023] | < 5.00
20 | COc1cc(OCc2cccc(-c3cccc(OCC4CCCN(C)C4)c3Cl)c2C)c(Cl)cc1CN[C@H]1CCCNC1=O (some centres unmarked) [Compound 1045] | 8.44
21 | COc1cc(OCc2cccc(-c3cccc(OCC4CCCN(C)C4)c3Cl)c2C)c(Cl)cc1CNC1CC(C)(C)OC1=O (centres unmarked) [Compound 1034] | 8.13
22 | Cc1c(COc2cc(OCc3cncc(C#N)c3)c(CN[C@H]3CCNC3=O)cc2Cl)cccc1-c1cccc(OCC2CCCN(C)C2)c1Cl (some centres unmarked) [Compound 1010] | 8.64
23 | Cc1c(COc2cc(O)c(CN[C@H]3CCOC3=O)cc2Cl)cccc1-c1cccc(OCC2CCCN(C)C2)c1Cl (some centres unmarked) [Compound 1031] | 7.41

Continued by rising pIC50, values first:

Row | pIC50 | SMILES
24 | 5.42 | C=C1COc2cc(OCc3cccc(-c4cccc(OCC5CCCN(C)C5)c4Cl)c3C)c(Cl)cc2CN(C2CCOC2=O)C1 (centres unmarked) [Compound 1048]
25 | 5.60 | CCN(Cc1cc(Cl)c(OCc2cccc(-c3cccc(COc4cc(OCc5cncc(C#N)c5)c(CN(CC)C5CC(C)OC5=O)cc4Cl)c3C)c2C)cc1OCc1cncc(C#N)c1)C1CC(C)OC1=O (centres unmarked) [Compound 1054]
26 | 6.87 | COc1cc(OCc2cccc(-c3cccc(OCC4CCCN(C)C4)c3Cl)c2C)c(Cl)cc1CNC1C(=O)OCC1(C)C (centres unmarked) [Compound 1037]
27 | 6.88 | Cc1c(COc2cc(O)c(CNC3(C)CCOC3=O)cc2Cl)cccc1-c1cccc(OCC2CCCN(C)C2)c1Cl (centres unmarked) [Compound 1029]
28 | 7.35 | Cc1c(COc2cc(O)c(CN[C@H]3COC(=O)C3)cc2Cl)cccc1-c1cccc(OCC2CCCN(C)C2)c1Cl (some centres unmarked) [Compound 1028]
29 | 7.74 | Cc1c(COc2cc(OCc3cncc(C#N)c3)c(CN[C@H]3CCOC3=O)cc2Cl)cccc1-c1cccc(COc2cc(OCc3cncc(C#N)c3)c(CN[C@H]3CCOC3=O)cc2Cl)c1C [Compound 1019]
30 | 7.82 | Cc1c(COc2cc(OCc3cncc(C#N)c3)c(CNC3CCOC3=O)cc2Cl)cccc1-c1cccc(COc2cc(OCc3cncc(C#N)c3)c(CNC3CCOC3=O)cc2Cl)c1C (centres unmarked) [Compound 1018]
31 | 7.94 | COc1cc(OCc2cccc(-c3cccc(OCC4CCCN(C)C4)c3Cl)c2C)c(Cl)cc1CNC1CC(C)OC1=O (centres unmarked) [Compound 1033]
32 | 7.94 | Cc1c(COc2cc3c(cc2Cl)CN(C2CCOC2=O)CC(O)CO3)cccc1-c1cccc(OCC2CCCN(C)C2)c1Cl (centres unmarked) [Compound 1049]
33 | 8.11 | COc1cc(OCc2cccc(-c3cccc(OCC4CCCN(C)C4)c3Cl)c2C)c(Cl)cc1CNC1CCOC1=O (centres unmarked) [Compound 1032]
34 | 8.14 | Cc1c(COc2cc(OCc3cncc(C#N)c3)c(CN[C@@H]3CCOC3=O)cc2Cl)cccc1-c1cccc(COc2cc(OCc3cncc(C#N)c3)c(CN[C@@H]3CCOC3=O)cc2Cl)c1C [Compound 1020]
35 | 8.25 | COc1cc(OCc2cccc(-c3cccc(OCC4CCCN(C)C4)c3Cl)c2C)c(Cl)cc1CN[C@H]1COC(=O)C1 (some centres unmarked) [Compound 1042]
36 | 8.40 | Cc1c(COc2cc(OCc3cncc(C#N)c3)c(CN[C@H]3CCCNC3=O)cc2Cl)cccc1-c1cccc(OCC2CCCN(C)C2)c1Cl (some centres unmarked) [Compound 1013]
37 | 8.51 | COc1cc(OCc2cccc(-c3cccc(OCC4CCCN(C)C4)c3Cl)c2C)c(Cl)cc1CNC1CCC(=O)NC1=O (centres unmarked) [Compound 1046]
38 | 8.54 | Cc1c(COc2cc(OCc3cncc(C#N)c3)c(CNC3CCN(C)C3=O)cc2Cl)cccc1-c1cccc(OCC2CCCN(C)C2)c1Cl (centres unmarked) [Compound 1012]
39 | 8.60 | Cc1c(COc2cc(OCc3cncc(C#N)c3)c(CNC3CCNC3=O)cc2Cl)cccc1-c1cccc(OCC2CCCN(C)C2)c1Cl (centres unmarked) [Compound 1027]
40 | 8.62 | Cc1c(COc2cc(OCc3cncc(C#N)c3)c(CNC3CCC(=O)NC3=O)cc2Cl)cccc1-c1cccc(OCC2CCCN(C)C2)c1Cl (centres unmarked) [Compound 1015]
41 | 8.82 | Cc1c(COc2cc(OCc3cncc(C#N)c3)c(CNC3CCNC3=O)cc2Cl)cccc1-c1cccc(OCC2CCCN(C)C2)c1Cl (centres unmarked) [Compound 1011]
